Reference: patent US20160228575A1, “NARINGENIN COMPLEXES AND METHODS OF USE THEREOF” (THE GENERAL HOSPITAL CORPORATION, priority 2008, published 2016)

How the values were obtained:
[1] = system: HCV (JFH-1) secreted by infected Huh-7.5.1 cells; test: HCV secretion by JFH-1 infected Huh-7.5.1 cells (HCV core antigen ELISA, HCV positive strand RNA qPCR); format: cell-based, Hepatitis C virus
Description: The Huh-7.5.1 human hepatoma cell line and a plasmid containing the JFH-1 genome were kindly provided by Dr. Chisari (Scripps Research Institute, CA) and Dr. Wakita (National Institute of Infectious Diseases, Tokyo) respectively. Huh-7.5.1 cells were cultured in DMEM medium supplemented with 10% FBS, 200 units/ml penicillin and […] streptomycin in a 5% CO2-humidified incubator at 37° C. In vitro transcribed genomic JFH-1 RNA was delivered to cells by liposome-mediated transfection as described by Zhong et al. (2005)(8). Infected Huh-7.5.1 cells were passaged every 3 days and used at passage <15. The presence of HCV in these cells and corresponding supernatants were determined by quantitative Polymerase Chain Reaction (qPCR) and immunofluorescence staining. Primary human hepatocytes were purchased from BD Biosciences (San Jose, Calif.) cultured on a collagen-coated 12 well plate in C+H culture media composed of DMEM supplemented with 10% heat-inactivated FBS, 200 U/mL penicillin/streptomycin, 7.5 μg/mL hydrocortisone, 20 ng/mL EGF, 14 ng/mL glucagons and 0.5 U/mL insulin. The media was supplemented with 2% DMSO for long-term culture of the primary cells.
(§1) HCV-infected Huh-7.5.1 cells were plated on a 6-well plate at a density of 1×10^5 cells/cm^2 and cultured overnight in standard medium. Prior to the beginning of the experiment, the cells were washed 3 times with PBS and cultured with DMEM containing 5% lipoprotein-free FBS. Oleate, Insulin, Naringenin, and Brefeldin A were added at this time as described in the text. Following 24 hours of incubation, the plate was gently agitated to release mechanically bound particles, the media was collected, filtered to remove cellular debris, and stored at −80° C. for further analysis. The attached cells were washed 3 times with PBS, harvested, pelleted and stored at −80° C. for further analysis.
Huh-7.5.1 secreted HCV core antigen was detected in the media using Wako Chemicals (Cambridge, Mass.) ORTHO HCV antigen ELISA kit. Media was used as is, and the assay was carried out according to manufacturer's directions.
(§2) Virus samples collected in each experiment were filtered with a 0.45 μm filter and a volume of 100 μL for each sample was heated at 95° C. for 45 min. The reverse transcription reaction step was performed on a Mastercycler epgrdientS (Eppendorf) instrument using Omniscript and Sensiscript RT Kits (Qiagen). Real time PCR was performed on a Light Cycler LC-24 (Idaho Technology), using SuperScript™ III Platinum® CellsDirect Two-Step qRT-PCR Kits (Invitrogen) for quantitative PCR. For reverse transcription step, 2 μL of sample without RNA extraction were used. For real time PCR, 1 μL of the reverse transcription reactions was used. All reactions were performed according to the manufacturer's instructions using the primers detailed in Table 1.
However, this experiment was carried out on cells continuously producing the virus. Long-term treatment could potentially have a greater effect. […] This treatment is compared to the current standard-of-care, 1000 i.u. of Interferon α (IFNα). Both treatments lowered HCV RNA to a similar level, 96±5% and 93±5% respectively.

[2] = system: ApoB; test: ApoB secretion by JFH-1 infected Huh-7.5.1 cells (human ApoB ELISA); format: cell-based; details: 24 hours, brefeldin A 2.5 μg/ml
Description: as §1
Huh-7.5.1 and primary human hepatocytes secreted ApoB was detected in the media using ALerCHEK, Inc (Portland, Me.) total human ApoB ELISA kit. Media was diluted 1:10 with the specimen diluent, and the assay was carried out according to manufacturer's directions.
HCV-infected Huh-7.5.1 cells were plated T-25 tissue culture flasks at a density of 1×10^5 cells/cm^2 and cultured overnight in standard medium. Prior to silencing, the cells were washed 3 times with PBS and media was replaced with OptiMEM basal medium. SureSilencing shRNA (GFP) plasmids against human ApoB100 as well as shRNA plasmid control (500 ng/ml) were combined with lipofectamine 2000 in OptiMEM and incubated with the cells overnight. SureSilencing shRNA plasmids code for GFP which was used to sort the transfected Huh7.5.1 cells, using FACSAria (BD Biosciences) located at the Partners AIDS Research Center. Transfected cells (10% of the total population) were sorted directly into a 12-well plate and allowed to adhere overnight. Culture media was conditioned by the transfected cells for 24 hours and analyzed as described above.

[3] = system: HCV (JFH-1) infection of naïve Huh7.5.1 cells; test: HCV infectivity of cell culture supernatant on naïve Huh7.5.1 cells; format: cell-based, Hepatitis C virus
Description: The infectivity of the secreted HCV particles was measured as previously described (8). Naïve Huh7.5.1 cells were grown to 80% confluence and exposed to cell culture supernatants diluted 10-fold in culture media. Following 1 hour incubation at 37° C., the media was replaced, and the cells were cultured for 3 additional days. Levels of HCV infection were determined by immunofluorescence staining for HCV core protein. The viral titer is expressed as focus forming units per milliliter of supernatant (ffu/ml).

[4] = 400 mg/day oral, hypercholesterolemic patients; cited from earlier work
[5] = system: HCV (JFH-1) in Huh-7.5.1 cells; test: Intracellular HCV RNA and core protein in infected Huh-7.5.1 cells; format: cell-based, Hepatitis C virus
Description: as §1, §2
Huh-7.5.1 cells were washed 3 times with PBS and fixed in 4% EM-grade paraformaldehyde for 10 minutes at room temperature. Slides were then washed with PBS and incubated in 100 mmol/L glycine for 15 minutes to saturate reactive groups. Samples were permeabilized for 15 minutes with 0.1% Triton X-100, blocked for 30 minutes with 1% bovine serum albumin and 5% donkey serum at room temperature, and stained with primary antibodies overnight at 4° C. After additional washes with PBS, samples were stained with fluorescently tagged secondary antibodies for 45 minutes at room temperature.

[6] = 24 hours, brefeldin A 2.5 μg/ml

Question: For `C[C@H]1CCC/C=C/[C@@H]2C[C@H](O)C[C@H]2[C@H](O)/C=C/C(=O)O1` [brefeldin A, reference compound], which “HCV core protein secretion (in words)” value [1, 6] is on record?
Answer: Its value is “significantly inhibits”.

Question: What about the “HCV positive strand RNA secretion (in words)” value [1, 6] of the same compound?
Answer: The value was “significantly inhibits”.

Question: What about the “ApoB secretion (in words)” value [2] of the same compound?
Answer: The value was “blocked”.

Question: What about the “inhibition of infectivity of the cell supernatant” value ([3]; supernatant after 24 hours stimulation, naringenin 200 μM, brefeldin A 2.5 μg/ml) of the same compound?
Answer: The value was 89%±10%.

Question: For `C[C@@H]1O[C@@H](O[C@H]2[C@H](Oc3cc(O)c4c(c3)O[C@H](c3ccc(O)cc3)CC4=O)O[C@H](CO)[C@@H](O)[C@@H]2O)[C@H](O)[C@H](O)[C@H]1O` [naringin, reference compound], which “lowering of LDL levels” value [4] is on record?
Answer: The value was 17%.

Question: With IFNα [reference compound] as the compound, how does the “inhibition of HCV (RNA) secretion, long-term treatment” value ([1]; long-term daily treatment of infected Huh7.5.1 cells, naringenin 200 μM, IFNα 1000 i.u.) read?
Answer: Its value is 93±5%.

Question: What about the “HCV replication (intracellular HCV RNA), long-term treatment” value ([5]; long-term treatment, naringenin 200 μM, IFNα 1000 i.u.) of the same compound?
Answer: The value was “inhibited”.

Question: For “insulin: insulin obtained from Eli-Lilly [reference compound]”, which “HCV core protein secretion (in words)” value [1, 6] is on record?
Answer: The value was “downregulated”.

Question: And the “ApoB secretion (in words)” value [2]?
Answer: Its value is “downregulated”.

Question: What about the “infectivity of the cell supernatant (in words)” value ([3]; supernatant of stimulated infected Huh-7.5.1 cells) of the same compound?
Answer: Its value is “decreased”.

Question: And the “intracellular levels of HCV (positive strand) RNA” value ([5]; 24 hours stimulation)?
Answer: Its value is “remained unchanged”.
